# Calls of active or inactive are those of the source. The rule behind the calls is not given here.
# Tests used:
# [1] = Cmax in C57BL/6 mouse pneumonia model at 25 mg/kg, ip; type: ADME, organism-based; parameters: dose 25 mg/kg, route intraperitoneal; conditions: in vivo
# [2] = system: Oryctolagus cuniculus; assay: Antiinflammatory activity in Acinetobacter baumannii 1327-infected New Zealand rabbit meningitis model assessed as in WBC count at 25 mg/kg, iv after 6 hrs (RVb = 1 cells/ul); type: functional
# [3] = T>MIC in Acinetobacter baumannii infected C57BL/6 mouse pneumonia model at 25 mg/kg, iv; type: functional
# [4] = T>MIC in Acinetobacter baumannii infected New Zealand rabbit meningitis model at 25 mg/kg, iv; type: functional
# [5] = system: Acinetobacter baumannii; assay: Antibacterial activity against Acinetobacter baumannii 1327 infected in New Zealand rabbit meningitis model assessed as reduction in bacterial count in CSF at 25 mg/kg, iv measured after 6 hrs of last dose (RVb = 5.5); type: functional
# [6] = system: Acinetobacter baumannii; assay: Antibacterial activity against Acinetobacter baumannii 1327 infected in New Zealand rabbit meningitis model assessed as reduction in bacterial count in CSF at 25 mg/kg, iv measured after 4 hrs of last dose (RVb = 5.2); type: functional
# [7] = system: Acinetobacter baumannii; assay: Antibacterial activity against Acinetobacter baumannii 1327 infected in New Zealand rabbit meningitis model assessed as reduction in bacterial count in CSF at 25 mg/kg, iv measured after 2 hrs of last dose (RVb = 5.1); type: functional
# [8] = system: Acinetobacter baumannii; assay: Antimicrobial activity against Acinetobacter baumannii infected in C57BL/6 mouse model assessed as reduction in bacterial count in blood at total dose of 100 mg/kg/day, ip administered as four divided doses after 72 hrs; type: functional; parameters: scale not given: the % may be the effect or the level left; conditions: route intraperitoneal
# [9] = system: Acinetobacter baumannii; assay: Antimicrobial activity against Acinetobacter baumannii infected in C57BL/6 mouse model assessed as reduction in bacterial count per gram of lung at total dose of 100 mg/kg/day, ip administered as four divided doses after 72 hrs (RVb = 10.6+/-0.27); type: functional, organism-based
# [10] = system: Acinetobacter baumannii; assay: Antibacterial activity against Acinetobacter baumannii infected in C57BL/6 mouse model assessed as survival rate at total dose of 100 mg/kg/day, ip administered as four divided doses measured after 72 hrs post last dose; type: functional; conditions: route intraperitoneal
# [11] = system: Acinetobacter baumannii; assay: Antimicrobial activity against Acinetobacter baumannii 1417; type: functional
# [12] = system: Acinetobacter baumannii; assay: Antimicrobial activity against Acinetobacter baumannii 1327; type: functional
# [13] = system: Acinetobacter baumannii; assay: Antimicrobial activity against Acinetobacter baumannii 940; type: functional
# [14] = system: Acinetobacter baumannii; assay: Antimicrobial activity against Acinetobacter baumannii 506; type: functional
# [15] = system: Acinetobacter baumannii; assay: Antimicrobial activity against Acinetobacter baumannii 1417 after 24 hrs by time-kill assay; type: functional, organism-based
# [16] = system: Acinetobacter baumannii; assay: Antimicrobial activity against Acinetobacter baumannii 1327 after 24 hrs by time-kill assay; type: functional, organism-based
# [17] = system: Acinetobacter baumannii; assay: Antimicrobial activity against Acinetobacter baumannii 940 after 24 hrs by time-kill assay; type: functional, organism-based
# [18] = system: Acinetobacter baumannii; assay: Antimicrobial activity against Acinetobacter baumannii 506 after 24 hrs by time-kill assay; type: functional, organism-based
# [19] = AUC in New Zealand rabbit meningitis model at 25 mg/kg, iv; type: ADME, organism-based, Oryctolagus cuniculus; parameters: dose 25 mg/kg, route intravenous; conditions: in vivo
# [20] = AUC in C57BL/6 mouse pneumonia model at 25 mg/kg, ip; type: ADME, organism-based; parameters: dose 25 mg/kg, route intraperitoneal; conditions: in vivo
# [21] = Cmax in New Zealand rabbit meningitis model at 25 mg/kg, iv; type: ADME, organism-based, Oryctolagus cuniculus; parameters: dose 25 mg/kg, route intravenous; conditions: in vivo
structure (smiles),measurement,setting,value
CO[C@H]1/C=C/O[C@@]2(C)Oc3c(C)c(O)c4c(O)c(c(/C=N/N5CCN(C)CC5)c(O)c4c3C2=O)NC(=O)/C(C)=C\C=C\[C@H](C)[C@H](O)[C@@H](C)[C@@H](O)[C@@H](C)[C@H](OC(C)=O)[C@@H]1C [RIFAMPIN],Cmax,[1],15800 ng/mL
same,Activity,[2],8.2%
same,T>MIC,[3],7.5 h
same,T>MIC,[4],6.54 h
same,Activity,[5],3.5 log10CFU/ml
same,Activity,[6],4.5 log10CFU/ml
same,Activity,[7],5.1 log10CFU/ml
same,Activity,[8],78.6%
same,Activity,[9],Active
same,survival at 100 mg/kg/day,[10],71.4%
same,MBC,[11],8 µg/mL
same,MIC,[11],8 µg/mL
same,MBC,[12],8 µg/mL
same,MIC,[12],4 µg/mL
same,MBC,[13],4 µg/mL
same,MIC,[13],4 µg/mL
same,MBC,[14],4 µg/mL
same,MIC,[14],4 µg/mL
same,Activity,[15],Active
same,Activity,[16],Active
same,Activity,[17],Active
same,Activity,[18],Active
same,AUC,[19],40300 ng·h/mL
same,AUC,[20],24800 ng·h/mL
same,Cmax,[21],16600 ng/mL

# From ChEMBL document CHEMBL1240392 (Antimicrob Agents Chemother, 2010)
